In PubChem BioAssay AID179 (DTP/NCI, 2004):
Calls of active or inactive are those of the source.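 How the source made its calls: active means compounds giving half or more protection of infected cells from virus-caused growth loss, again on retest; inactive means the rest.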

System: CEM cells HIV-1 protection, formazan growth assay
Test: NCI AIDS Antiviral Assay
Details: for IC50: measured here: growth of uninfected CEM cells
Outline: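 Five concentrations of each compound were applied to infected and uninfected human CEM cells. Protection from HIV-1 was judged from growth measured with a soluble formazan assay.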

CC(C)/C(Cl)=N\OC(=O)NNc1ccccc1
EC50: > 20 µM | IC50: 5.75 µM

CC1CC/C(=C\c2ccc(Cl)cc2)C2=C1C(c1ccc(Cl)cc1)N1C(=O)CSC1=N2 (configuration not stated)
outcome: inactive

Cc1cs/c(=N\C(P(=O)(O)O)P(=O)(O)O)n1C
EC50: > 100 µM | IC50: > 100 µM

CC1=NN(c2cccc(S(=O)(=O)O)c2)C(=O)C1N=Nc1cc(Cl)cc(S(=O)(=O)O)c1O.O.[Cr] (configuration not stated)
EC50: 89.1 µM | IC50: > 100 µM

COc1cc(-c2ccc(N=Nc3cc4cc(S(=O)(=O)O)ccc4cc3O)c(OC)c2)ccc1N=Nc1cc2cc(S(=O)(=O)O)ccc2cc1O
EC50: 17.4 µM | IC50: 120 µM

O=C1C2c3[nH]c4ccccc4c3C3CCSCC3C2C(=O)N1c1ccccc1 (configuration not stated)
outcome: inactive

Cc1nc2ccc(S(=O)(=O)Nc3ccccc3)cc2c(=O)n1NC(=O)CNc1ccccc1
EC50: > 200 µM | IC50: 186 µM

CC(=O)OC1CC2CCC3C(CCC4(C)C3CC([N+]3(C)CCCCC3)C4OC(C)=O)C2(C)CC1[N+]1(C)CCCCC1 (configuration not stated)
EC50: > 200 µM | IC50: > 200 µM

CC(C)(CC#N)c1cc(CC(C)(C)c2cc(CC(C)(C)c3cc(C(C)(C)C4(C)OCCO4)no3)no2)no1
EC50: > 200 µM | IC50: 60.3 µM

C=C(CCCCOCOCCOC)[Si](C)(C)C
EC50: > 138 µM | IC50: > 138 µM

OC1OC(c2ccc[nH]2)C(F)(F)C(F)(F)C1(F)F (configuration not stated)
EC50: > 200 µM | IC50: 67.6 µM

CCSCC1OC2OC3C(CSCC)OC(OC4C(CSCC)OC(OC5C(CSCC)OC(OC6C(CSCC)OC(OC7C(CSCC)OC(OC8C(CSCC)OC(OC1C(OS(=O)(=O)O)C2OS(=O)(=O)O)C(OS(=O)(=O)O)C8OS(=O)(=O)O)C(OS(=O)(=O)O)C7OS(=O)(=O)O)C(OS(=O)(=O)O)C6OS(=O)(=O)O)C(OS(=O)(=O)O)C5OS(=O)(=O)O)C(OS(=O)(=O)O)C4OS(=O)(=O)O)C(OS(=O)(=O)O)C3OS(=O)(=O)O (configuration not stated)
EC50: 2.75 µM | IC50: 50.1 µM

CCN(CC)CCS(=O)c1c2cc(OC)ccc2nc2ccc(OC)cc12 (configuration not stated)
EC50: > 200 µM | IC50: 3.39 µM

Cc1c(OCCCOc2ccc3c(=O)cc(-c4ccccc4)oc3c2C)ccc2c(=O)cc(-c3ccccc3)oc12
EC50: > 25.1 µM | IC50: > 25.1 µM

CCN(CC)C(=S)N/N=C(/C)c1cccc(/C(C)=N\NC(=S)N(CC)CC)n1
EC50: > 200 µM | IC50: 6.31 µM

O=c1c2c([nH]c3ccccc13)CSC2
EC50: > 67.6 µM | IC50: > 67.6 µM

CSc1nc(C)c(C(=O)CCN2CCN(c3ccccn3)CC2)s1
EC50: > 87.1 µM | IC50: 4.37 µM

Cc1cc(C)c(NS(=O)c2cccc(Cl)c2)c(C)c1 (configuration not stated)
EC50: > 123 µM | IC50: > 123 µM

CC12CC(OC1=O)C(=O)c1ccccc12 (configuration not stated)
EC50: > 468 µM | IC50: 209 µM

CN(C)Cc1cc(C(=O)/C=C/c2ccc(Cl)c(Cl)c2)cc(CN(C)C)c1O
EC50: > 200 µM | IC50: 2.75 µM

COC(=O)CCn1cnc2c(SC)ncnc21
EC50: > 200 µM | IC50: > 200 µM

CN(/N=C\c1ccnc2ccccc12)c1ccc([N+](=O)[O-])cc1
outcome: inactive

CCOC(=O)c1c(C)[nH]c(=S)c(C#N)c1-c1cccc2ccccc12
EC50: > 200 µM | IC50: 28.8 µM

O=c1c2ccccc2nc(-c2cccc(Cl)c2)n1NCC1(O)OCC(O)C(O)C1O (configuration not stated)
outcome: inactive

C/C(=N/NC(=S)Nc1ccc(C)cc1)c1ccccn1
EC50: > 0.2 µM | IC50: 0.0794 µM

O=C1CN(C=C2C(=O)NC(=O)NC2=O)C(=S)N1
EC50: > 200 µM | IC50: > 200 µM

CC(C(=O)COCc1ccccc1)P1(=O)OC(C)(C)CN1C(C)(C)C (configuration not stated)
EC50: > 200 µM | IC50: 132 µM

NC(=S)NN=C(C1CC1)C1CC1
EC50: > 200 µM | IC50: > 200 µM

CC(CCC(C)C(=O)O)C(=O)O (configuration not stated)
EC50: > 1450 µM | IC50: > 1450 µM

O=S(=O)(N(c1ccc(Cl)cn1)S(=O)(=O)C(F)(F)F)C(F)(F)F
EC50: > 200 µM | IC50: > 200 µM

S=C1CC(=S)NC(=S)N1
EC50: > 513 µM | IC50: > 513 µM

Cc1c(C(=O)CC(=O)C(=O)Nc2cc(Cl)ccc2Cl)[n+](=O)c2ccccc2n1[O-]
EC50: > 8.71 µM | IC50: > 8.71 µM

CC(=O)OC1C[C@@H](C)C2(CC(c3ccoc3)OC2=O)C2CCC(O)C3(CO3)C12CO (some centres not stated)
EC50: > 200 µM | IC50: > 200 µM

CCOC(=O)C1Cc2ccc3c4c(ccc(c24)C1)CC(C(=O)OCC)C3
outcome: inactive

Clc1cccc2nncc(N3CC3)c12
outcome: inactive

CN1C(=O)OC(c2ccc(Cl)cc2)C1=O (configuration not stated)
EC50: > 200 µM | IC50: > 200 µM

Cc1c(-c2cc3n(n2)C(c2cccs2)C(C#N)=C(c2ccccc2)N3)c(=O)n(-c2ccccc2)n1C (configuration not stated)
outcome: inactive

CCCCC1Sc2cc(OC)cc3c2N(CCN3)C1=O (configuration not stated)
EC50: > 200 µM | IC50: 28.2 µM

Oc1ccc2ccccc2c1C1=NNc2n[nH]c(=S)n2N1
EC50: > 148 µM | IC50: 19.1 µM

COC(=O)C1=C(C)N2CCOC2CC1c1ccccc1 (configuration not stated)
EC50: > 200 µM | IC50: 135 µM

Oc1cccnc1/C=N/OCc1ccccc1
EC50: > 295 µM | IC50: 219 µM

CC(=O)OC1(C)C2c3ccccc3C(c3ccccc32)C1(C)C (configuration not stated)
EC50: > 85.1 µM | IC50: > 85.1 µM
